Laboratory results from patent publication US20240271138A1, “METHODS AND COMPOSITIONS FOR MODULATING STING SIGNALING AND INNATE IMMUNE RESPONSES” (The Broad Institute, Inc., priority 2021, published 2024).

Key:
STING-HA = STING-HA degradation in 293T stably expressing STING-HA, HA intracellular staining; format: cell-based, human; conditions: 293T STING-HA; cGAMP 6 hours; pre-treatment with U18666A; FIGS. 11G-11H
Description: FIGS. 11A-11H show interaction of ESCRT components with STING. FIGS. 11A-11D show immunofluorescence of CD63, HGS, and STING (FIG. 11A); p62, HGS, and STING (FIG. 11B); LC3B, HGS, and STING (FIG. 11C); p62, CD63, and STING (FIG. 11D) in 293T stably expressing STING-HA and non-stimulated, relative to FIGS. 4A-4D. […] Dashed box represents the cropped region enlarged in the right panel for the +cGAMP condition. Scale bar is 10 μm. One representative field of n≥3 independent fields in n=3 independent experiments. […] One representative experiment of n=3 independent experiments with n=2 technical replicates per experiment. […] Each dot represents an individual replicate **** p<0.0001.
Data was analyzed with FlowJo (BD).

[1] = tested on: STING LBD fusion proteins (PH-S139, 2XFYVE-S139); test: mNG fluorescence and immunoblots of organelle-targeted STING LBD fusion proteins; format: cell-based, human; conditions: nigericin stimulation
Description: Upper, concentrated STING is able to mediate TBK1 for trans-phosphorylation. Lower, diluted STING is unable to mediate TBK1's transphosphorylation.

DNAJC13 = test: Immunofluorescence of DNAJC13 in 293T cells; format: cell-based, human; conditions: 1 μm VPS34-IN1, FIG. 22B
Description: (§1) FIGS. 22A-22F show endosome localization and J domain activity are essential for DNAJC13's function on STING.

STING = test: Immunoblots of U937 and STING-HA 293T cells treated with VPS34-IN1 and cGAMP; format: cell-based, human; conditions: 1 μM VPS34-IN1
Description: as §1

T-cells = conditions: cited from earlier work
type 1 IFN expression = conditions: cited from earlier work
human STING = human STING (Homo sapiens, UniProt Q86WV6); conditions: cited from earlier work
human STING, sequence (Q86WV6 whole entry H232R): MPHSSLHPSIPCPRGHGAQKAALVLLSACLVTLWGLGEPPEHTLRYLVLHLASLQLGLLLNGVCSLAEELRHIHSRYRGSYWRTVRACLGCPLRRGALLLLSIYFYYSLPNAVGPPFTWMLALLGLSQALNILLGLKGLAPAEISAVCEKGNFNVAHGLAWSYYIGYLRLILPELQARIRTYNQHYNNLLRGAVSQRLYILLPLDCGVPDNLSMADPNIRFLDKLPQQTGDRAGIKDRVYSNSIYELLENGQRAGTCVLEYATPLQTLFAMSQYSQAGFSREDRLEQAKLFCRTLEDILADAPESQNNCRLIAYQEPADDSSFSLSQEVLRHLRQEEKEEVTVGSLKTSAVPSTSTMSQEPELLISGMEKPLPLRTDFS

[2] = sgCTRL cells, cGAMP stimulation, FIGS. 22D-22E

Q: For `CCN(CC)CCO[C@H]1CC[C@@]2(C)C(=CC[C@@H]3[C@@H]2CC[C@]2(C)C(=O)CC[C@@H]32)C1` [U18666A], which “STING degradation (STING-HA MFI)” value (STING-HA) is on record?
A: marked reduction in STING degradation

Q: What does the source list for `CO[C@@H]1C[C@@H](C[C@H]2CC[C@H](C)[C@H]([C@@H](C)C(=O)O)O2)O[C@]2(O[C@](C)([C@H]3CC[C@@](C)([C@@H]4O[C@@H]([C@H]5O[C@@](O)(CO)[C@H](C)C[C@@H]5C)C[C@@H]4C)O3)C[C@H]2C)[C@@H]1C` [Nigericin]?
A: PH-S139 localization ([1]; FIG. 17E): PH-S139 localization change was observed to dispersed vesicles; STING activation (phosphorylation) of fusion proteins ([1]; FIG. 17F): STING activation was observed in PH-S139 and 2XFYVE-S139 but not with mitochondria localized TomS33-S139 or WT STING

Q: For `CC(C)(O)CNc1ncc(-c2ccnc(Nc3ccnc(Cl)c3)n2)c(CC2CC2)n1` [VPS34-IN1], which DNAJC13 endosomal localization (DNAJC13) is on record?
A: clear diffusion of DNAJC13 from the endosome

Q: What about the STING induced autophagy (STING; STING-HA 293T, digitonin and cGAMP, FIG. 22E) of the same compound?
A: greatly enhanced

Q: What about the STING degradation (STING; [2]) of the same compound?
A: enhancement of STING degradation

Q: What about the STING phosphorylation (STING; [2]) of the same compound?
A: strong boost of STING phosphorylation

Q: Which “T-cell proliferation and T-cell death” value (T-cells; exogenous cGAMP) does the source give for cyclic GMP-AMP [cGAMP] here?
A: impairs T-cell proliferation and can cause T-cell death

Q: For `Cc1ccc2c(=O)c3cccc(CC(=O)O)c3oc2c1C` [DMXAA, 6-dimethylxanthenone-4-acetic acid], which “apoptosis in T-cells” value (T-cells) is on record?
A: elicits stress pathways that induce apoptosis in T-cells

Q: What about the “type 1 IFN expression” value (type 1 IFN expression) of the same compound?
A: induces type 1 IFN expression

Q: What about the “binding to human STING versus murine STING” value (human STING) of the same compound?
A: substantially weaker binding to human STING in comparison to murine STING
